Test results: patent publication US7144901B2, “Oxadiazole derivatives and drugs containing these derivatives as the active ingredient” (ONO Pharmaceutical Co.,Ltd., priority 1999, dated 2006)

What was measured:
Format in all cases: biochemical
cathepsin L = cathepsin L (Homo sapiens, UniProt P07711); test: Measurement of cathepsin L inhibitory activity
Procedure: (iv) Measurement of Cathepsin L Inhibitory Activity
5 μL of Synthesized substrate (carbobenzoxy-L-phenylalanyl-L-arguine-4-methyl-chromanyl-7-amide or L-prolyl-L-phenylalanyl-L-arguinine-4-methyl-chromanyl-7-amide) solution and 5 μL of cysteine protease inhibitor solution of several concentrations, 80 μL of cathepsin L enzyme reaction buffer (400 mmol/L acetic acid, 4 mmol/L EDTA, 8 mmol/L DTT were mixed to adjust to pH 5.5) and 10 μL of cathepsin L enzyme solution were mixed and the increase of fluorescence intensity was measured (λex (excitation wavelength)=355 nm, λem (fluorescence wavelength)=460 nm) when reacted at 37° C.

cathepsin B = cathepsin B (Homo sapiens, UniProt P07858); test: Measurement of cathepsin B inhibitory activity
Procedure: (ii) Measurement of Cathepsin B Inhibitory Activity
10 μL of Synthesized substrate (carbobenzoxy-L-arginyl-L-arginine-4-methyl-chromanyl-7-amide or carbobenzoxy-L-phenylalanyl-L-arginine-4-methyl-chromanyl-7-amide) solution of several concentrations, 10 μL of cysteine protease inhibitor solution of several concentrations, 70 μL of cathepsin B enzyme reaction buffer (mixture of 400 mmol/L in acetic acid, 4 mmol/L EDTA, 8 mmol/L DDT to adjust to pH 5.5) and 10 μL of cathepsin B enzyme solution were mixed and the increase of fluorescence intensity was measured (λex (excitation wavelength)=355 nm, λem (fluorescence wavelength)=460 nm) when reacted at 37° C.

cathepsin S = cathepsin S (Homo sapiens, UniProt P25774); test: Measurement of cathepsin S inhibitory activity
Sequence of cathepsin S (P25774 115-331, species assumed): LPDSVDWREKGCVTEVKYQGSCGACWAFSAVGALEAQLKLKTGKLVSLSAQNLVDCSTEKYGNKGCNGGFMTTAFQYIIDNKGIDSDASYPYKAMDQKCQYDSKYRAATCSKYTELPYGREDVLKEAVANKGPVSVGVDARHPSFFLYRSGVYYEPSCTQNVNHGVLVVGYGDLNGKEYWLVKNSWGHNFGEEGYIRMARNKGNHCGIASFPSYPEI
Procedure: (iii) Measurement of Cathepsin S Inhibitory Activity
10 μL of synthesized substrate (carbobenzoxy-L-leucyl-L-leucyl-L-arguinine-4-methyl-chromanyl-7-amide) solution and 5 μL of cysteine protease inhibitor solution of several concentrations, 75 μL of cathepsin S enzyme reaction buffer (100 mmol/L of sodium phosphate, 2 mmol/L of EDTA, 2 mmol/L of DTT were mixed to adjust to pH 6.5) and 10 μL of cathepsin S enzyme solution were mixed and the increase of fluorescence intensity was measured (λex (excitation wavelength)=355 nm, λem (fluorescence wavelength)=460 nm) when reacted at 37° C.

cathepsin K = target: T1, cathepsin K (Homo sapiens, UniProt P43235); test: Measurement of cathepsin K inhibitory activity; conditions: Dixon plot, fluorogenic substrate, pH 5.5, 37° C.
T1 sequence (P43235 115-329): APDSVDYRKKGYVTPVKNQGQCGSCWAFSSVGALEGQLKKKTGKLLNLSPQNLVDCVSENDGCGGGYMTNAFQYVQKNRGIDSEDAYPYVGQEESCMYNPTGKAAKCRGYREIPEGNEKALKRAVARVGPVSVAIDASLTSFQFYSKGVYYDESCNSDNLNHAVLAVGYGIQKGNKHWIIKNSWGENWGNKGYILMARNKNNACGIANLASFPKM
Procedure: (i) Measurement of Cathepsin K Inhibitory Activity
65 μL of Cathepsin K enzyme reaction buffer (50 mmol/L of 2-(N-morpholino)ethanesulfonate, 2 mmol/L of ethylenediamine tetraacetate (EDTA) and 4 mmol/L of dithiothreitol (DTT) were mixed to adjust to pH 5.5), 5 μL of cysteine protease inhibitor solution of several concentrations, 20 μL of synthesized substrate (t-butyloxycarbonyl-L-alanyl-glycyl-L-prolyl-L-arginine-4-methyl-chromanyl-7-amide) solution of several concentrations and 10 μL of cathepsin K enzyme solution were mixed and the increase of fluorescence intensity when reacted at 37° C. was measured (λex (excitation wavelength)=355 nm, λem (fluorescence wavelength)=460 nm). As to the substrate and the compound of the present invention, enzyme reactions were carried out in combination of several appropriate concentrations and Dixon plotting was prepared, to define the absolute value of X-coordinate of the intersection point of the graph as Ki value.

Sequence of cathepsin L (P07711 114-333, species assumed): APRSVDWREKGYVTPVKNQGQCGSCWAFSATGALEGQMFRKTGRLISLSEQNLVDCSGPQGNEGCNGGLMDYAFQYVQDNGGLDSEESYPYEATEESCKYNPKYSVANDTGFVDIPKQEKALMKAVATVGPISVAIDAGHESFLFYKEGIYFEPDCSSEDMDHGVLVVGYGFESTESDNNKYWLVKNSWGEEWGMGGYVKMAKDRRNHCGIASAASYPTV

`CC(C)C[C@H](NC(=O)OCc1ccccc1)C(=O)N[C@@H](CC(C)C)C(=O)c1nn(CC2CCC2)c(=O)o1` [1 (21), (2S)-N-[(2S)-1-(3-cyclobutylmethyl-2-oxo-1,3,4-oxadiazolin-5-yl)-4-methyl-1-oxo-2-pentyl]-2-benzyloxycarbonylamino-4-methylpentanamide] was tested, and the inhibition at 1 µM (cathepsin L) was 92%.
With `CC(C)C[C@H](NC(=O)[C@@H]1CCCC[C@@H]1NC(=O)c1ccccc1)C(=O)c1nnc(SCc2ccccc2)o1` [3 (5), 1-[(1R,2S)-2-benzoylaminocyclohexyl]-N-[(2S)-1-(5-benzylthio-1,3,4-oxadiazol-2-yl)-4-methyl-1-oxo-2-pentyl]carboxamide] the inhibition at 1 µM (cathepsin B) was 100%.
For `CSc1nnc(C(=O)[C@H](CCc2ccccc2)NC(=O)[C@@H]2CCCC[C@@H]2NC(=O)c2ccccc2)o1` [3 (7), 1-[(1R,2S)-2-benzoylaminocyclohexyl]-N-[(2S)-1-(5-methylthio-1,3,4-oxadiazol-2-yl)-1-oxo-4-phenyl-2-butyl]carboxamide], the inhibition at 1 µM (cathepsin S) was 100%.
For `CC(C)C[C@H](NC(=O)OCc1ccccc1)C(=O)N[C@@H](CC(C)C)C(=O)c1nnc(SC(C)C)o1` [example 3], the Ki (cathepsin K) was 1.3 nM.
